In US20050014835A1, “Agents for Treating Diseases Caused by Nonsense Mutations” (priority 2001, published 2005):

How the values were obtained:
[1] = format: in vivo; settings: highest dose 1.2×10^−3 mol/kg/day (100×)
Experimental: In order to measure changes in body weight due to drug administration, male mdx mice (seven weeks old, four for each dose) were injected daily with NM at 1.2×10^−5 mol/kg (1× the effective dose), 1.2×10^−4 mol/kg (10×), 6.0×10^−4 mol/kg (50×), or 1.2×10^−3 mol/kg (100×) for 14 days. The body weight of each mouse was measured everyday. Other mdx mice (seven weeks old, two for each dose) were injected with GM (1.2×10^−3 mol/kg [100×]) as a control test. Body weight was also measured every day.

[2] = test system: TA muscle fibers; assay: Evans Blue Dye staining of degenerating muscle fibers in drug-treated mdx mice; format: in vivo; settings: 1.2×10^−5 mol/kg/day subcutaneously for two weeks, FIG. 2
Experimental: (§1) Mdx mice were used as a dystrophy mouse model. NM was dissolved in PBS and Millipore-filtered just before injection, in order to avoid degradation during storage in solution. Mdx mice (male, seven week-old, six for each dose) were injected subcutaneously with an NM solution (137 mM NaCl, 2.68 mM KCl, 8.10 mM […], and 1.47 mM KH2PO4) prepared using PBS, at half the concentration (1.2×10^−5 mol/kg) of the solution in the GM experiment by Barton-Davis et al. (Barton-Davis, E. R., Cordiner, L. Shoturma, D. I., Leiland, S. E., Sweeney, H. L. (1999) Aminoglycoside antibiotics restore dystrophin function to skeletal muscles of mdx mice. J. Clin. Invest. 104, 375-381) every day for two weeks. Control mdx mice (n=6) and C57BL/10 (B10, n=6) mice were injected with PBS (0.1 ml) alone, every day for two weeks.
(§2) After injection, immunofluorescence and Evans Blue staining were performed to detect dystrophin. Immunofluoresce staining was carried out as follows using antibodies against the C-terminus of dystrophin. Animals were sacrificed using an overdose of ether gas. The tibialis anterior (TA) muscles were removed and frozen in melting isopentane for immunohistochemistry. Then, 7 μm transverse cryosections were prepared. […] After labeling with secondary antibodies, dystrophin was detected by fluorescence microscopy, based on fluorescence emission. […]

[3] = test system: dystrophin; assay: Immunofluorescence staining of dystrophin in cultured mdx-sk myotubes; format: cell-based, mdx mouse; settings: 50 μg/ml, seven days
From the text: The SV40T immortalized mdx satellite cell line, mdx-sk, was newly established from the mdx mouse to test the dystrophin restoring level in cultured mdx skeletal muscle cells. The mdx-sk line was established by introducing a retroviral vector carrying a cDNA for the temperature-sensitive form of the Simian Virus 40 large T antigen (a kind gift from Dr. Drinkwater) to a primary culture of mdx myoblasts obtained from the mdx mice. The retrovirus was produced using the packaging cell line, Plat-E, as previously described (Morita, S., Kojima, T., Kitamura, T. (2000) Plat-E: an efficient andstable system for transient packaging of retroviruses. Gene Therapy 7, 1063-1066). The cell line was cultured and maintained in Dulbecco's Modified Eagle Medium (DMEM)-high glucose (4,500 mg/l) supplemented with 20% fetal calf serum at 32.5° C. in a CO2 incubator. To induce muscle differentiation, the culture medium was changed to a differentiation medium (10% horse serum in Eagle MEM) and the culture temperature was shifted to 39.5° C. […]
In order to examine whether NM can restore dystrophin expression in the mdx-sk cells established as described above, NM was added at a concentration of 50 μg/ml or 100 μg/ml to a differentiation medium of myotubes cultured for seven days, and then culture was continued for another seven days. […] The cells were then observed under a fluorescence microscope.

[4] = test system: dystrophin; assay: Immunofluorescence staining of dystrophin in TA muscle of drug-treated mdx mice; format: in vivo
Experimental: as §1, §2

[5] = test system: dystrophin; assay: Immunoblotting of dystrophin in cultured mdx-sk myotubes; format: cell-based, mdx mouse; settings: 100 μg/ml, seven days
From the text: The SV40T immortalized mdx satellite cell line, mdx-sk, was newly established from the mdx mouse to test the dystrophin restoring level in cultured mdx skeletal muscle cells. The mdx-sk line was established by introducing a retroviral vector carrying a cDNA for the temperature-sensitive form of the Simian Virus 40 large T antigen (a kind gift from Dr. Drinkwater) to a primary culture of mdx myoblasts obtained from the mdx mice. The retrovirus was produced using the packaging cell line, Plat-E, as previously described (Morita, S., Kojima, T., Kitamura, T. (2000) Plat-E: an efficient andstable system for transient packaging of retroviruses. Gene Therapy 7, 1063-1066). The cell line was cultured and maintained in Dulbecco's Modified Eagle Medium (DMEM)-high glucose (4,500 mg/l) supplemented with 20% fetal calf serum at 32.5° C. in a CO2 incubator. To induce muscle differentiation, the culture medium was changed to a differentiation medium (10% horse serum in Eagle MEM) and the culture temperature was shifted to 39.5° C.
After induction of differentiation, the cells were cultured, and NM (50 μg/ml (2.0×10^−4 mol/kg) or 100 μg/ml (4.0×10^−4 mol/kg) in a differentiation medium solution) was added to the culture. Then, the cells were allowed to differentiate by culturing in the medium without an antibiotic for seven days. […]

[6] = Ototoxicity assay: hearing threshold by auditory brain stem response; format: in vivo, Mdx mouse; settings: 1.2×10^−4 mol/kg daily for seven days, measured one day after final injection
Experimental: One day after the final injection, the hearing threshold was measured based on auditory brain stem response, according to the method of Shapiro et al. (Shapiro, S. M., Moller, A. R., Shiu, G. K. Brain-stem auditory evoked potentials in rats with high-dose pentbarbital. (1984) Electroencephalogr. Clin. Neurophysiol. 58, 266-276).

[7] = test system: dystrophin; assay: Immunoprecipitation and immunoblotting of dystrophin in muscles of NM-treated mdx mice; format: in vivo
Experimental: The left hind leg muscle (600 mg), the diaphragm (100 mg), and the cardiac muscle (100 mg) were collected from NM-treated mdx mice, NM-untreated mdx mice, and B10 mice as described above. Each of the specimens was homogenized in 15 ml of a homogenizing solution (pH 7.2) (pyrophosphate mixture, 20 mM Na4P2O7, 20 mM NaH2PO4, and 1 mM MgCl2, pH 7.1) containing 10% sucrose and 0.5 mM EDTA. The homogenization was carried out with a Teflon homogenizer at maximal speed for one minute (Mitchell, R. D., Palade, P., and Fleicher, S. (1983) Purification of morphologically intact triad structures from skeletal muscle. J. Cell Biol. 96, 1008-1016; Yoshida, M., Suzuki, A., Shimizu, T., and Ozawa, E. (1992) Proteinase-sensitive sites on isolated rabbit dystrophin. J. Biochem. 112, 433-439). The homogenate was centrifuged in an RA rotor (KUBOTA) at 9,000 rpm for 15 minutes. […]
Immunoprecipitation was performed as described by Abe et al. (Abe, M., Saitoh, O., Nakata, H., Yoda, A., and Matsuda, R. (1996) Expression of neurofilament proteins in proliferating C2C12 mouse skeletalmuscle cells. Exp. Cell Res. 229, 48-59) using muscle protein sample preparations prepared from mdx mice and B10 mice as described above. […] After boiling, the supernatant was collected, and the protein concentration thereof was determined by microburette method. […]

For Gentamicin [GM, reference compound], the lethality [1] was “killed all of the tested mice within four hours”.
For `CN(CC(=O)O)NC(=O)C[C@H](N)C[C@@H](O)CN` [NM, negamycin], the “percentage of fibers with increased membrane permeability (EBD-positive fibers)” value [2] was “lower in NM-treated mice than in GM-treated mice”, the “dystrophin expression by immunofluorescence staining” value [3] was “strong fluorescence signals were detected” and the “percentage of dystrophin-positive TA muscle fibers” value ([4]; 1.2×10^−5 mol/kg/day subcutaneously for two weeks, FIG. 2) was “higher than in GM-treated mdx mice”. The “dystrophin-positive fibers by immunofluorescence staining” value ([4]; TA muscle, 1.2×10^−5 mol/kg subcutaneously every day for two weeks) was “detected”, the “dystrophin (427 kDa) band by immunoblotting” value [5] was “a clear band was detected at the position of 427 kDa” and the “hearing loss by auditory brain stem response” value [6] was “not in NM-treated mice”. For the same molecule, the “dystrophin expression level restored, relative to normal B10 hind leg muscle” value ([7]; hind leg muscle, immunoblotting, estimated) was “about 10%”, the “dystrophin bands by immunoblotting” value ([7]; hind leg muscles (FIG. 3(1) G, H, I), 1.2×10^−5 mol/kg/day for two weeks, intensity lower than positive control B10) was “dystrophin bands were detected” and the lethality [1] was “not lethally toxic”.
